Reference: ChEMBL document CHEMBL4665915, “Evaluation of a Series of Lipidated Tucaresol Adjuvants in a Hepatitis C Virus Vaccine Model” (2020)
Calls of active or inactive are those of the source. No cut-off for these calls is given here.

What was measured:
[1] = organism: Mus musculus; experiment: Immuno-adjuvant activity in E2deltaTM3-immunized BALB/cj mouse assessed as neutralization of HCV H77 genotype 1a pseudotyped virus particle with pooled immune sera at 1 ug/ml; assay type: functional; settings: dose 1 µg/ml
[2] = system: Mus musculus; experiment: Immuno-adjuvant activity in E2deltaTM3-immunized BALB/cj mouse assessed as potentiation of antibody response to E1E2 by measuring increase in serum anti-E1E2 IgG level administered subcutaneously as prime injection at 200 ug and 800 ug compound split over the remaining four days to give final dose of 1 mg followed by booster injection at four week intervals on day 28, 56 and 84 and measured at […] post-booster injection on days 34, 62 and 90 by ELISA; assay type: functional, organism-based

Row | SMILES | Activity [1] [%] | Activity [2]
1 | CCCCCCCCCCCCCCCCOc1cc(O)ccc1C=O | 78 | Active
2 | CCCCCCCCCCCCCCCCOc1cccc(O)c1C=O | 59 | Active
3 | CCCCCCCCCCCCCCCCOc1ccc(O)c(O)c1C=O | 71 | Active
4 | O=Cc1c(O)cccc1OCc1ccc(C(=O)O)cc1 [TUCARESOL] | 61 | 
